Assay type in all cases: cell-based, human
One data set deals with primary monocytes. The data set can be described thus: Monocyte to macrophage differentiation after siRNA transfection, surface markers by FACS. To be noted: monocytes, 100 ng/mL M-CSF, 4 days after transfection (FIG. 12). How it is done: (A) knockdown of VentX expression in primary monocytes by RNA interference. Monocytes were transfected with siRNA against GFP or VentX through electroporation. VentX mRNA levels were determined by real time PCR at 3 days after transfection (left); VentX protein level was determined by western blotting at 4 days after transfection (right). (B) Effects of VentX knockdown on macrophage morphogenesis during M-CSF induced differentiation. Monocytes were transfected with either siGFP or siVentX and subsequently exposed to 100 ng/mL M-CSF. […] Magnification of photographs, ×200. Note: a portion of cells lost their original morphology during Wright-Giemsa staining procedure. (C) Effects of VentX knockdown on macrophage surface expression of CD71. […] Filled blue histogram represents the isotope control staining; red histogram represents monocytes transfected with siGFP; green histogram represents monocytes transfected with siVentX. (D) Bar graphs show mean+SD of 6 different experiments in (C). Paired t test was used to reveal the statistical significance. **p<0.01.
(A) Left panel: Flow cytometry analysis of indicated surface markers in monocytes transfected with siGFP or siVentX, respectively; right panel: bar graphs show the mean+SD of at least three separate experiments. *p<0.05; **p<0.01. (B) Effects of VentX knockdown on macrophage viability. Monocytes were transfected with either siGFP or siVentX and subsequently exposed to 100 ng/mL M-CSF for 3 days. Cells were then harvested and stained with PI and Annexin V and analyzed by flow cytometry. (C) Effects of VentX knockdown on phagocytosis. Monocytes were transfected with siGFP or siVentX. Phagocytosis assays were carried out as described in materials and methods. […]
Surface expression of CD71 was determined by FACS analysis at 4 days after siRNA transfection. […]
Peripheral blood mononuclear cells (PBMC) from healthy adult donors at Children's Hospital Boston were isolated by Ficoll density gradient centrifugation. […] The purity of freshly isolated CD14^+ monocytes was more than 95% as analyzed by flow cytometry. […]
(In general: A flow cytometer gives signals particle by particle.)

Another data set deals with VentX. Kind of data set: VentX expression during cytokine-induced monocyte to macrophage differentiation (RT-PCR, western blot). Conditions: monocytes cultured with cytokine at 100 ng/ml (FIG. 1B). A general note: Immunoblotting shows a protein as a band on a membrane.
The test system of data set [1] is cytokine mRNA expression in macrophages. The data set can be described thus: Effects of VentX knockdown on cytokine mRNA expression in macrophages (real-time PCR). Conditions: macrophages transfected with siRNA; classical activation by LPS plus IFN-γ. On the set-up: unit not given here. How it is done: Macrophages were generated through incubation of freshly isolated monocytes with 100 ng/mL M-CSF for 4 days. These macrophages were then transfected with siGFP or siVentX, respectively, and further cultured in RPMI 1640 medium for additional 3 days. Thereafter, cells were exposed to 1 μg/mL LPS plus 20 ng/mL γ-IFN for 6 hours. (A) Surface staining of CD40, CD80, CD86 and HLA-DR and intracellular staining of TNF-α and IL1-β were analyzed by flow cytometry. (B) Secreted TNF-α, IL1-β and IL12p70 from culture supernatants were determined with ELISA kits. (C) Reactive oxygen species (ROS) from siGFP or siVentX transfected macrophages were analyzed with fluorescence microscope (left) and flow cytometry (middle). […] (D) Nitrate level from siGFP and siVentX transfected macrophages. Data represent mean+SD of three different experiments. (E) Phagocytosis of siGFP and siVentX transfected macrophage. Red histogram represents transfection with siGFP; green histogram represents transfection with siVentX. Left panel: cells were incubated on ice; right panel: cells were incubated at 37° C. (F) Effects of VentX knockdown on mixed lymphocyte reaction. Irradiated macrophages that had been transfected with siGFP or siVentX were utilized to stimulate allogenic naïve CD4 T cells proliferation. The proliferation rates were represented by counts per minute (CPM). […] Statistically significant difference (p<0.05) was observed when 4×10^2 or 2×10^3 cells were added.
(Martinez, et al. 2008 Front Biosci 13:453-461; Mosser, et al. 2008 Nat Rev Immunol 8:958-969.) To investigate whether VentX is required for classical activation of macrophages, a loss-of-function approach by knockdown of VentX was used.
Human primary monocytes were transfected using the Human Monocyte Nucleofector Kit (Lonza) according to the manufacturer's instructions. Briefly, 5×10^6monocytes were resuspended into 100 μl nucleofector solution with 0.5 nmol of either VentX siRNA (forward: 5′-[…]-3′ (SEQ ID NO:4); reverse: 5′-[…]-3′ (SEQ ID NO:5)) or non-effective GFP siRNA (forward: 5′-[…]-3′ (SEQ ID NO:6); 5′-reverse: […]-3′ (SEQ ID NO:7)) before electroporation with nucleofector II Device (Lonza). Cells were then immediately removed from the device and incubated overnight with 1 ml pre-warmed Human Monocyte Nucleofector Medium containing 2 mM glutamine and 10% FBS. Cells were then resuspended into complete RPMI medium and treated with appropriate cytokines to induce differentiation into macrophages. Similarly, macrophages derived from monocytes were transfected with Human Macrophage Nucleofector Kit (Lonza) following the manufacturer's instructions.
Total RNA was isolated by the TRIzol reagent, and an equal amount of RNA was used for first-strand cDNA synthesis with SuperScript III First-Strand Synthesis System (Invitrogen) according to the manufacturer's protocol. To amplify VentX cDNA with conventional PCR, AccuPrime™ Taq DNA polymerase system (Invitrogen) was used following the manufacturer's instructions. PCR products were separated on 2% agarose gels and stained with ethidium bromide. GAPDH was used as an internal control. Quantitative measurement of VentX and cytokines cDNA were performed with SYBR Green on a LightCycler® (480 Real-Time PCR System; Roche). The primers used are listed in the Sequence Listing (SEQ ID NOs: 24-109).
(In general: Real-time PCR tracks product formation cycle by cycle.)

On to “VentX siRNA-2: second siRNA sequence against VentX, 5′-UCUACUCAACGUCUUCUGGCCUUGCCAAU-3′ (SEQ ID NO:3) (listed as RNA, chemistry not given here)”, for which, in the data set with primary monocytes, the “surface expression of CD71 and other markers” value was “down-regulated”.
On to “GM-CSF: granulocyte macrophage colony-stimulating factor, purchased from PeproTech”, for which the “VentX expression during monocyte to macrophage differentiation” value in the data set with VentX is on record as “up-regulated”.
As for “siGFP: non-effective GFP siRNA, forward 5′-UGACCACCCUGACCUACGGCGUGCAGUGC-3′ (SEQ ID NO:6), reverse SEQ ID NO:7 (antisense GCACUGCACGCCGUAGGUCAGGGUGGUCA; listed as RNA, chemistry not given here) [reference compound]”, in data set [1], the “IL1-β cytokine mRNA expression” value amounted to 51.08 ± 3.2, the “IL6 cytokine mRNA expression” value is recorded as 3.40 ± 0.21, the “IL8 cytokine mRNA expression” value amounted to 471 ± 10.2 and the “IL12p35 cytokine mRNA expression” value was 1.77 ± 0.21. Further, in data set [1], the “IL12p40 cytokine mRNA expression” value was determined as 0.52 ± 0.02, the “M-SCSF cytokine mRNA expression” value was found to be 0.40 ± 0.01 and the “TNF-α cytokine mRNA expression” value is 0.46 ± 0.04.

B1: M-CSF: macrophage colony-stimulating factor, purchased from PeproTech (protein, UniProt P09603 33-554, looked up)
Macrophage colony-stimulating …: EEVSEYCSHMIGSGHLQSLQRLIDSQMETSCQITFEFVDQEQLKDPVCYLKKAFLLVQDIMEDTMRFRDNTPNAIAIVQLQELSLRLKSCFTKDYEEHDKACVRTFYETPLQLLEKVKNVFNETKNLLDKDWNIFSKNCNNSFAECSSQDVVTKPDCNCLYPKAIPSSDPASVSPHQPLAPSMAPVAGLTWEDSEGTEGSSLLPGEQPLHTVDPGSAKQRPPRSTCQSFEPPETPVVKDSTIGGSPQPRPSVGAFNPGMEDILDSAMGTNWVPEEASGEASEIPVPQGTELSPSRPGGGSMQTEPARPSNFLSASSPLPASAKGQQPADVTGTALPRVGPVRPTGQDWNHTPQKTDHPSALLRDPPEPGSPRISSLRPQGLSNPSTLSAQPQLSRSHSSGSVLPLGELEGRRSTRDRRSPAEPEGGPASEGAARPLPRFNSVPLTDTGHERQSEGSFSPQLQESVFHLLVPSVILVLLAVGGLLFYRWRRRSHQEPQRADSPLEQPEGSPLTQDDRQVELPV
Consider B1, for which the “VentX expression during monocyte to macrophage differentiation” value with VentX was “up-regulated”.

Source of the values: patent publication US10066272B2, “Human homeobox gene ventx and macrophage terminal differentiation and activation, compositions and methods thereof” (priority 2011, dated 2018).
